Source: patent US20080255192A1, “Methods and Compositions for Selectin Inhibition” (Wyeth, priority 2007, published 2008)

Target: T1, P-selectin/PSGL-1 interaction (Homo sapiens, UniProt P16109)
T1 construct: comprised of the lectin and epidermal growth factor-like (EGF) domains expressed in CHO cells; made in house; host or cells: CHO cells (P-LE)
T1 sequence (P16109 42-198): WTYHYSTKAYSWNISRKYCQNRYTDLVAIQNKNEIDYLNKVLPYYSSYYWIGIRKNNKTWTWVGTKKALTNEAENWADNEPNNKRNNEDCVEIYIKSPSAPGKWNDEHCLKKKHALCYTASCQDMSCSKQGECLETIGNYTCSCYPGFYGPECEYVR
Experiment: Biacore P-Selectin/PSGL-1 Inhibition Assay (surface plasmon resonance)
Assay type: binding
Conditions: 250 uM test compound, 500 nM P.LE, immobilized PSGL-1 19ek, 10% DMSO, pH 7.4
Protocol: Surface plasmon resonance assays were performed on a Biacore 3000 instrument (Biacore Inc. Piscataway, N.J.) at 25° C. at a flow rate of 30 μL/minute and each assay consisted of a 60-second equilibration, a 60-μL sample injection (kinject), and a 300-second dissociation.
A purified, monomeric, truncated form of human PSGL-1, “19ek”, that contained all the necessary P-selectin binding determinants (see Goetz, et al., J. Cell Biol., 1997, 137: 509-519; and Sako, et al., Cell, 1995, 83: 323-331) was biotinylated via amine chemistry (Sulfo-NHS-LC-Biotin, Peirce) at a unique C-terminal lysine residue (see Somers, et al., Cell, 2000, 103: 467-479) and immobilized on a Biacore SA sensor chip (Biacore Inc.), using an HBS-EP buffer (Biacore Inc.), and the target 600-700 RU. The coated chip was re-equilibrated with an HBS-P buffer (Biacore Inc.) to which 1 mM CaCl2 and 1 mM MgCl2 (both from Fisher) were added to ensure sufficient calcium for the calcium-dependent interaction between the receptor and the ligand.
Test compounds were incubated for 1 hour in a 1.1× Biacore assay buffer. Each solution was centrifuged through a 0.2 µm filter, using a 96-well plate format (Millipore). Glycyrrhizin tri-sodium salt (TCI) was prepared as a positive control in parallel with the test compounds, in the same manner described above.
A soluble recombinant truncated form of human P-selectin, P-LE, comprised of the lectin and epidermal growth factor-like (EGF) domains expressed in CHO cells (see Somers, et al., Cell, 2000, 103: 467-479) was added to each filtered test compound solution. Final concentrations of reagents were 500 nM P.LE, 250 or 500 μM test compound (depending on structure) or 1 mM glycyrrhizin, 10% DMSO, and 1× Biacore buffer ([…], 150 mM NaCl, 1 mM CaCl2, and 1 mM MgCl2 (all reagents from Fisher)), with a pH of 7.4. Compounds active at 250 μM were titrated to further define activity. Test samples were supplied to the Biacore instrument in a 96-well plate.
The Biacore raw data file was exported as a text file to an Excel spreadsheet, where the buffer blanks bracketing the samples were averaged for each Biacore instrument flow cell (Fc), and subtracted from the averaged uninhibited P.LE samples and from all the other samples. The reference signal from Fcl (uncoated) was then subtracted from its corresponding active (coated) signal for each injection, a process known as double referencing (see Myszka, J. Mol. Recognit., 1999, 12(5): 279-284). The percent inhibition of binding was calculated by dividing the reference-subtracted inhibited signal by the reference-subtracted uninhibited signal, subtracting this value from 1, and multiplying the resulting value by 100. The replicate percent inhibition values were averaged and expressed as the mean ±standard deviation. The inter-experiment standard deviation of calculated percent inhibitions in the Biacore assay was ±5.

SMILES | inhibition at 250 µM
CCc1ccc2nc(C3(c4ccccc4)CC3)c(O)c(C(=O)O)c2c1 [Compound 27, 6-ethyl-3-hydroxy-2-(1-phenylcyclopropyl)quinoline-4-carboxylic acid] | ≤ 10%
CC(C)c1cccc2c(C(=O)O)c(O)c(C3(c4ccccc4)CC3)nc12 [Compound 44, 3-hydroxy-8-isopropyl-2-(1-phenylcyclopropyl)quinoline-4-carboxylic acid] | 63%
O=C(O)c1c(O)c(C2(c3ccc(Cl)cc3)CC2)nc2cc(Cl)ccc12 [Compound 16, 7-chloro-2-(1-(4-chlorophenyl)cyclopropyl)-3-hydroxyquinoline-4-carboxylic acid] | 28%
Cc1cc(C)c2nc(C3(c4ccc(Cl)cc4)CC3)c(O)c(C(=O)O)c2c1 [Compound 10, 2-(1-(4-chlorophenyl)cyclopropyl)-3-hydroxy-6,8-dimethylquinoline-4-carboxylic acid] | 47%
CCc1cccc2c(C(=O)O)c(O)c(C3(c4ccc(Cl)cc4)CC3)nc12 [Compound 2, 2-(1-(4-chlorophenyl)cyclopropyl)-8-ethyl-3-hydroxyquinoline-4-carboxylic acid] | 67%
Cc1ccc2c(C(=O)O)c(O)c(C3(c4ccc(Cl)cc4)CC3)nc2c1C [Compound 40, 2-(1-(4-chlorophenyl)cyclopropyl)-3-hydroxy-7,8-dimethylquinoline-4-carboxylic acid] | 53%
Cc1cc(C)c2nc(C3(c4ccc(F)cc4)CC3)c(O)c(C(=O)O)c2c1 [Compound 69, 2-(1-(4-fluorophenyl)cyclopropyl)-3-hydroxy-6,8-dimethylquinoline-4-carboxylic acid] | 11%
O=C(O)c1c(O)c(C2(c3ccc(Cl)cc3)CCC2)nc2c(C(F)(F)F)cccc12 [Compound 58, 2-(1-(4-chlorophenyl)cyclobutyl)-3-hydroxy-8-(trifluoromethyl)quinoline-4-carboxylic acid] | ≤ 10%
Cc1cc(C(F)(F)F)c2nc(C3(c4ccc(Cl)cc4)CC3)c(O)c(C(=O)O)c2c1 [Compound 94, 2-(1-(4-chlorophenyl)cyclopropyl)-3-hydroxy-6-methyl-8-(trifluoromethyl)quinoline-4-carboxylic acid] | 65%
O=C(O)c1c(O)c(C2(c3ccc(C(F)(F)F)cc3)CC2)nc2c(-c3ccccc3)cccc12 [Compound 92, 3-hydroxy-8-phenyl-2-(1-(4-(trifluoromethyl)phenyl)cyclopropyl)quinoline-4-carboxylic acid] | ≤ 10%
CC(C)(C)c1cccc2c(C(=O)O)c(O)c(C3(c4ccc(Cl)cc4)CC3)nc12 [Compound 4, 8-tert-butyl-2-(1-(4-chlorophenyl)cyclopropyl)-3-hydroxyquinoline-4-carboxylic acid] | ≤ 10%
O=C(O)c1c(O)c(C2(c3ccccc3)CC2)nc2ccc(Cl)cc12 [Compound 30, 6-chloro-3-hydroxy-2-(1-phenylcyclopropyl)quinoline-4-carboxylic acid] | ≤ 10%
Cc1ccc2nc(C3(c4ccccc4)CC3)c(O)c(C(=O)O)c2c1 [Compound 33, 3-hydroxy-6-methyl-2-(1-phenylcyclopropyl)quinoline-4-carboxylic acid] | ≤ 10%
CCc1ccc2c(C(=O)O)c(O)c(C3(c4ccc(Cl)cc4)CC3)nc2c1 [Compound 12, 2-(1-(4-chlorophenyl)cyclopropyl)-7-ethyl-3-hydroxyquinoline-4-carboxylic acid] | 13%
O=C(O)c1c(O)c(C2(c3ccc(C(F)(F)F)cc3)CC2)nc2c(-c3ccsc3)cccc12 [Compound 91, 3-hydroxy-8-(thiophen-3-yl)-2-(1-(4-(trifluoromethyl)phenyl)cyclopropyl)quinoline-4-carboxylic acid] | ≤ 10%
O=C(O)c1c(O)c(C2(c3ccc(F)cc3)CC2)nc2cc(Br)ccc12 [Compound 74, 7-bromo-2-(1-(4-fluorophenyl)cyclopropyl)-3-hydroxyquinoline-4-carboxylic acid] | 10%
O=C(O)c1c(O)c(C2(c3ccccc3)CC2)nc2cc(Cl)ccc12 [Compound 26, 7-chloro-3-hydroxy-2-(1-Phenylcyclopropyl)quinoline-4-carboxylic acid] | ≤ 10%
CCc1ccc2c(C(=O)O)c(O)c(C3(c4ccccc4)CC3)nc2c1 [Compound 28, 7-ethyl-3-hydroxy-2-(1-phenylcyclopropyl)quinoline-4-carboxylic acid] | ≤ 10%
O=C(O)c1c(O)c(C2(c3ccc(OC(F)(F)F)cc3)CC2)nc2c(C(F)(F)F)cccc12 [Compound 56] | 29%
O=C(O)c1c(O)c(C2(c3ccc(Cl)cc3)CC2)nc2ccc(Br)cc12 [Compound 18, 6-bromo-2-(1-(4-chlorophenyl)cyclopropyl)-3-hydroxyquinoline-4-carboxylic acid] | 28%
O=C(O)c1c(O)c(C2(c3ccc(F)cc3)CC2)nc2c(-c3ccsc3)cccc12 [Compound 71, 2-(1-(4-fluorophenyl)cyclopropyl)-3-hydroxy-8-(thiophen-3-yl)quinoline-4-carboxylic acid] | 64%

Further lines, results first:

inhibition at 250 µM | SMILES
46% | O=C(O)c1c(O)c(CC2(c3ccccc3)CC2)nc2c(C(F)(F)F)cccc12 [Compound 111, 3-hydroxy-2-(1-phenyl-cyclopropylmethyl)-8-trifluoromethyl-quinoline-4-carboxylic acid]
60% | Cc1ccc2c(C(=O)O)c(O)c(C(C)(C)c3ccccc3)nc2c1C [Compound 115, 3-hydroxy-7,8-dimethyl-2-(2-phenylpropan-2-yl)quinoline-4-carboxylic acid]
64% | CC(C)c1cccc2c(C(=O)O)c(O)c(CC(C)c3ccccc3)nc12 (centres unmarked) [Compound 136, 3-Hydroxy-8-isopropyl-2-(2-phenylpropyl)quinoline-4-carboxylic acid]
90% | Cc1ccc2c(C(=O)O)c(O)c(C(c3ccccc3)C(C)C)nc2c1C (centres unmarked) [Compound 131, 3-Hydroxy-7,8-dimethyl-2-(2-methyl-1-phenylpropyl)quinoline-4-carboxylic acid]
57% | O=C(O)c1c(O)c(C2(c3ccc(Cl)cc3)CC2)nc2c(C3CC3)cccc12 [Compound 109, 2-[1-(4-chloro-phenyl)-cyclopropyl]-8-cyclopropyl-3-hydroxy-quinoline-4-carboxylic acid]
≤ 10% | CCc1cc(C(F)(F)F)c2nc(C3(c4ccc(Cl)cc4)CC3)c(O)c(C(=O)O)c2c1 [Compound 98]
90% | CC(c1ccccc1)c1nc2c3c(ccc2c(C(=O)O)c1O)CCCC3 (centres unmarked) [Compound 125, 3-Hydroxy-2-(1-phenylethyl)-7,8,9,10-tetrahydrobenzo[h]quinoline-4-carboxylic acid]
≤ 10% | O=C(O)c1c(O)c(C2(c3ccccc3)CC2)nc2c(C(F)(F)F)cc(-c3ccccc3)cc12 [Compound 102, 3-hydroxy-6-phenyl-2-(1-Phenylcyclopropyl)-8-(trifluoromethyl)quinoline-4-carboxylic acid]
24% | Cc1ccc(C2(c3nc4c(C)c(C)ccc4c(C(=O)O)c3O)CC2)cc1 [Compound 113, 3-hydroxy-7,8-dimethyl-2-(1-p-tolyl-cyclopropyl)-quinoline-4-carboxylic acid]
49% | CC(c1ccccc1)c1nc2c(C(F)(F)F)cccc2c(C(=O)O)c1O (centres unmarked) [Compound 123, 3-hydroxy-2-(1-phenylethyl)-8-(trifluoromethyl)quinoline-4-carboxylic acid]
60% | CC(C)C(c1ccccc1)c1nc2c(C(F)(F)F)cccc2c(C(=O)O)c1O (centres unmarked) [Compound 129, 3-Hydroxy-2-(2-methyl-1-phenylpropyl)-8-(trifluoromethyl)quinoline-4-carboxylic acid]
